Test results reported in patent US20230123334A1, “AMINO LIPID COMPOUND, PREPARATION METHOD THEREFOR, AND APPLICATION THEREOF” (SHENZHEN SHENXIN BIOTECHNOLOGY CO., LTD., priority 2020, published 2023).

Tests used:
HEK293 cells [1] = assay: Preliminary screening as mRNA vectors, EGFP mRNA transfection of HEK293 cells; assay type: cell-based; conditions: HEK293 cells, 96-well plates, EGFP mRNA 50 ng per well; percentage of GFP fluorescent cells relative to total number of cells (Hoechst)
Procedure, shortened: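 HEK293 cells in DMEM plus 10% FBS transfected in 96-well format with 50 ng EGFP mRNA per well; Lipofectamine2000 served as positive control. Read-out is the percentage of GFP-fluorescent cells among total cells, counted by Hoechst nuclear stain.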

HEK293 cells [2] = assay: Preliminary screening as DNA vectors, GFP transfection of HEK293 cells; assay type: cell-based; conditions: HEK293 cells; lipid/DOPE liposome with 75 ng plasmid DNA (psin-EGFP-IRES-Puro); number of cells expressing GFP divided by total number of nuclei (Hoechst)
Procedure, shortened: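 HEK293 cells in DMEM/10% FBS transfected with 75 ng EGFP plasmid per well complexed with amino lipid/DOPE liposomes in pH 5.6 sodium acetate. Hoechst nuclear stain added 20-24 h post-transfection, then cells cultured another 20-24 h. Confocal imaging gives GFP-positive cells as % of total nuclei.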

With CCCCCCCCCCCNc1nc(NCCCCCCCC)nc(NCCN(CC)CC)n1 [Compound N8N11D7] the “Absolute mRNA transfection efficiency in HEK293 cells” value (from here on “Absolute mRNA transfection efficiency”) (HEK293 cells [1]) was 0.0% and the “Absolute DNA transfection efficiency in HEK293 cells” value (“Absolute DNA transfection efficiency” below) (HEK293 cells [2]) was 0.0%.
For CCCCCCCCCCCNc1nc(NCCCCCCCC)nc(NCCCN2CCOCC2)n1 [Compound N8N11D8], the “Absolute mRNA transfection efficiency” value (HEK293 cells [1]) was 0.1% and the “Absolute DNA transfection efficiency” value (HEK293 cells [2]) was 0.0%.
With CCCCCCCCCCCNc1nc(NCCCCCCCC)nc(NCCCN2CCN(C)CC2)n1 [Compound N8N11D9] the “Absolute mRNA transfection efficiency” value (HEK293 cells [1]) was 0.0% and the “Absolute DNA transfection efficiency” value (HEK293 cells [2]) was 0.0%.
In the case of CCCCCCCCCCCNc1nc(NCCCCCCCC)nc(NCC2CCN(C)CC2)n1 [Compound N8N11D10], the “Absolute mRNA transfection efficiency” value (HEK293 cells [1]) was 0.2% and the “Absolute DNA transfection efficiency” value (HEK293 cells [2]) was 0.3%.
With CCCCCCCCCCCCNc1nc(NCCCCCCCC)nc(NCCN(C)C)n1 [Compound N8N12D1] the “Absolute mRNA transfection efficiency” value (HEK293 cells [1]) was 0.5% and the “Absolute DNA transfection efficiency” value (HEK293 cells [2]) was 0.6%.
CCCCCCCCCCCCNc1nc(NCCCCCCCC)nc(NCCN2CCOCC2)n1 [Compound N8N12D2] was tested, and the “Absolute mRNA transfection efficiency” value (HEK293 cells [1]) was 0.0% and the “Absolute DNA transfection efficiency” value (HEK293 cells [2]) was 0.0%.
With CCCCCCCCCCCCNc1nc(NCCCCCCCC)nc(NCCN2CCCC2)n1 [Compound N8N12D3] the “Absolute mRNA transfection efficiency” value (HEK293 cells [1]) was 0.5% and the “Absolute DNA transfection efficiency” value (HEK293 cells [2]) was 2.4%.
With CCCCCCCCCCCCNc1nc(NCCCCCCCC)nc(NCCN2CCCCC2)n1 [Compound N8N12D4] the “Absolute mRNA transfection efficiency” value (HEK293 cells [1]) was 0.0% and the “Absolute DNA transfection efficiency” value (HEK293 cells [2]) was 0.0%.
CCCCCCCCCCCCNc1nc(NCCCCCCCC)nc(NCCN2CCN(C)CC2)n1 [Compound N8N12D5] was tested, and the “Absolute mRNA transfection efficiency” value (HEK293 cells [1]) was 0.9% and the “Absolute DNA transfection efficiency” value (HEK293 cells [2]) was 0.6%.
CCCCCCCCCCCCNc1nc(NCCCCCCCC)nc(NCCCN(C)C)n1 [Compound N8N12D6] was tested, and the “Absolute mRNA transfection efficiency” value (HEK293 cells [1]) was 0.1% and the “Absolute DNA transfection efficiency” value (HEK293 cells [2]) was 0.4%.
With CCCCCCCCCCCCNc1nc(NCCCCCCCC)nc(NCCN(CC)CC)n1 [Compound N8N12D7] the “Absolute mRNA transfection efficiency” value (HEK293 cells [1]) was 0.0% and the “Absolute DNA transfection efficiency” value (HEK293 cells [2]) was 0.0%.
For CCCCCCCCCCCCNc1nc(NCCCCCCCC)nc(NCCCN2CCOCC2)n1 [Compound N8N12D8], the “Absolute mRNA transfection efficiency” value (HEK293 cells [1]) was 0.0% and the “Absolute DNA transfection efficiency” value (HEK293 cells [2]) was 0.0%.
In the case of CCCCCCCCCCCCNc1nc(NCCCCCCCC)nc(NCCCN2CCN(C)CC2)n1 [Compound N8N12D9], the “Absolute mRNA transfection efficiency” value (HEK293 cells [1]) was 0.0% and the “Absolute DNA transfection efficiency” value (HEK293 cells [2]) was 0.0%.
In the case of CCCCCCCCCCCCNc1nc(NCCCCCCCC)nc(NCC2CCN(C)CC2)n1 [Compound N8N12D10], the “Absolute mRNA transfection efficiency” value (HEK293 cells [1]) was 2.3% and the “Absolute DNA transfection efficiency” value (HEK293 cells [2]) was 0.7%.
With CCCCCCCCCCCCCNc1nc(NCCCCCCCC)nc(NCCN(C)C)n1 [Compound N8N13D1] the “Absolute mRNA transfection efficiency” value (HEK293 cells [1]) was 0.0% and the “Absolute DNA transfection efficiency” value (HEK293 cells [2]) was 2.2%.
For CCCCCCCCCCCCCNc1nc(NCCCCCCCC)nc(NCCN2CCOCC2)n1 [Compound N8N13D2], the “Absolute mRNA transfection efficiency” value (HEK293 cells [1]) was 0.1% and the “Absolute DNA transfection efficiency” value (HEK293 cells [2]) was 0.0%.
In the case of CCCCCCCCCCCCCNc1nc(NCCCCCCCC)nc(NCCN2CCCC2)n1 [Compound N8N13D3], the “Absolute mRNA transfection efficiency” value (HEK293 cells [1]) was 2.7% and the “Absolute DNA transfection efficiency” value (HEK293 cells [2]) was 0.9%.
With CCCCCCCCCCCCCNc1nc(NCCCCCCCC)nc(NCCN2CCCCC2)n1 [Compound N8N13D4] the “Absolute mRNA transfection efficiency” value (HEK293 cells [1]) was 0.2% and the “Absolute DNA transfection efficiency” value (HEK293 cells [2]) was 0.7%.
For CCCCCCCCCCCCCNc1nc(NCCCCCCCC)nc(NCCN2CCN(C)CC2)n1 [Compound N8N13D5], the “Absolute mRNA transfection efficiency” value (HEK293 cells [1]) was 0.0% and the “Absolute DNA transfection efficiency” value (HEK293 cells [2]) was 0.0%.
For CCCCCCCCCCCCCNc1nc(NCCCCCCCC)nc(NCCCN(C)C)n1 [Compound N8N13D6], the “Absolute mRNA transfection efficiency” value (HEK293 cells [1]) was 0.0% and the “Absolute DNA transfection efficiency” value (HEK293 cells [2]) was 0.0%.
CCCCCCCCCCCCCNc1nc(NCCCCCCCC)nc(NCCN(CC)CC)n1 [Compound N8N13D7] was tested, and the “Absolute mRNA transfection efficiency” value (HEK293 cells [1]) was 0.0% and the “Absolute DNA transfection efficiency” value (HEK293 cells [2]) was 0.0%.
CCCCCCCCCCCCCNc1nc(NCCCCCCCC)nc(NCCCN2CCOCC2)n1 [Compound N8N13D8] was tested, and the “Absolute mRNA transfection efficiency” value (HEK293 cells [1]) was 0.2% and the “Absolute DNA transfection efficiency” value (HEK293 cells [2]) was 0.0%.
In the case of CCCCCCCCCCCCCNc1nc(NCCCCCCCC)nc(NCCCN2CCN(C)CC2)n1 [Compound N8N13D9], the “Absolute mRNA transfection efficiency” value (HEK293 cells [1]) was 0.0% and the “Absolute DNA transfection efficiency” value (HEK293 cells [2]) was 1.0%.
CCCCCCCCCCCCCNc1nc(NCCCCCCCC)nc(NCC2CCN(C)CC2)n1 [Compound N8N13D10] was tested, and the “Absolute mRNA transfection efficiency” value (HEK293 cells [1]) was 1.9% and the “Absolute DNA transfection efficiency” value (HEK293 cells [2]) was 2.1%.
For CCCCCCCCCCCCCCCNc1nc(NCCCCCCCC)nc(NCCN(C)C)n1 [Compound N8N15D1], the “Absolute mRNA transfection efficiency” value (HEK293 cells [1]) was 0.7% and the “Absolute DNA transfection efficiency” value (HEK293 cells [2]) was 1.5%.
